How the values were obtained:
[1] = target: T1, IV-cPLA(2) (Homo sapiens, UniProt P47712); assay: PLA(2) activity, hydrolysis of bis-BODIPY FL C11-PC in activated U937 cells; format: cell-based; conditions: for inhibition at 0.1 µM: U-937, 0.1 μM
T1 sequence (P47712 1-749): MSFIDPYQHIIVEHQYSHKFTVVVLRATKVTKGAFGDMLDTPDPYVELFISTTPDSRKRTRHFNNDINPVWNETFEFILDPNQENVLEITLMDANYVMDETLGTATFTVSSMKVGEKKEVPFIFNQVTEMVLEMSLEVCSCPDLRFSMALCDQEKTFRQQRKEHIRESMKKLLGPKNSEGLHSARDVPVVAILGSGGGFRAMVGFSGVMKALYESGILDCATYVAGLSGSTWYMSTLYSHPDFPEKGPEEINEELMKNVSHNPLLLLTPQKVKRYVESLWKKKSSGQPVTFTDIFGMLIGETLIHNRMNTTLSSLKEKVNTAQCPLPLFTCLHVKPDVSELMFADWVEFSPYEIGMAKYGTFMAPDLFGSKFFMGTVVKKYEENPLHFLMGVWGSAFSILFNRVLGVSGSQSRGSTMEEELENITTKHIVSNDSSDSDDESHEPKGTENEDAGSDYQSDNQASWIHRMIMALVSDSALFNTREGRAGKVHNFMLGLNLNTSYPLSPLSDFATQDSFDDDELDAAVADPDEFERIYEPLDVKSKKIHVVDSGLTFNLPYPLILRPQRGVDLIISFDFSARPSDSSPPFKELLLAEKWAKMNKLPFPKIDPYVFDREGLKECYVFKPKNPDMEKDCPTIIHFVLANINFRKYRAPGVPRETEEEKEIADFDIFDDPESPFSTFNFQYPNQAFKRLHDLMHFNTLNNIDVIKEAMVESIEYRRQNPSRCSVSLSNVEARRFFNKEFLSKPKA
Method: The PLA(2) activity was measured by quantitatively analyzing the fluorescent product of hydrolysis from 1,2-bis-(4,4-difluoro-5,7-dimethyl-4-bora-3a,4a-diaza-s-indecene-3-undecanoyl)-sn-glycero-3-phosphocholine (hereinafter referred to bis-BODIPY®FL C11—PC, Molecular Probes, Inc., B-7701) using activated U937 cells (human monoblastic lymphoma cell line) by inflammatory stimulus (Meshulam, T. et al., The journal of Biological Chemistry 267 (30): 21465-21470 (1992); and Solito, E. et al., British Journal of Pharmacology 124: 1675-1683 (1998).). The substrate bis-BODIPY®FL C11—PC is incorporated into cellular membranes, the proximity of the BODIPY FL fluorophores on adjacent phospholipid acyl chains causes fluorescence self-quenching. Separation of the fluorophores upon hydrolytic cleavage of one of the acyl chains by PLA(1) or the PLA(2) results in increased fluorescence. In the activated U937 by inflammatory stimulus, it is shown that this substrate should be cleaved enzymatically by IV-cPLA(2) from the feature of its behaviors including sensitivity profiles against the inhibitors.
The human cell line U937 was purchased from Dai-Nippon Pharmaceuticals Co., Ltd. The cells were maintained by transferring every 3-4 days into RPMI 1640 medium (Sigma Chemical Co., R6504) supplemented with heat-inactivated 10% fetal bovine serum (Fetal Bovine Serum, Sigma Chemical Co., F 4135) in a 5% CO2 humidified atmosphere at 37° C. The cells were transferred into the culture medium described above, containing 1.2% (v/v) dimethylsulfoxide (hereinafter referred to as […], Nacalai tesque Co., Ltd., D 134-45), and pre-cultured for 96 to 120 hours so as to differentiate into the macrophage-like cells to be provided for the assay. The macrophage-like cells were collected and washed by centrifugation with the Assay medium (Dulbecco's phosphate buffered saline (hereinafter referred to as PBS)-2.2 mM glucose-2.5 μm albumin). Then, Phorbol 12-Myristate 13-Acetate (hereinafter referred to as TPA, Sigma Chemical Co., P 8139) was added to the Assay medium to be 1×10^−8M as the final concentration. Then, the macrophage-like cells were further cultured for an hour to be activated (Rzigalinski, B. A. & Rosenthal, M. D., Biochimica et Biophysica Acta 1223: 219-225 (1994); and Gonchar, M. V. et al., Biochemical and Biophysical Research Communication, 249: 829-832 (1998).).
For preparing substrate liposome suspension, bis-BODIPY®FL C11—PC was combined with phosphatidylcholine (Sigma Chemical Co., P 7769) at 1:9 molar ratio in chloroform, and dried under nitrogen flow. The dried mixture was suspended with the Assay medium at 100 μg/mL, voltexed and sonicated for an hour on ice under dark condition.
The test compound was dissolved with DMSO at 30 mM, and the solution diluted with either DMSO or the Assay medium before addition into the reaction mixture. The DMSO concentration in the reaction mixture was controlled so as to be no more than 0.1%. The 30-fold concentration of test compound solution was put into each well of MICRPTEST™ Tissue Culture Plate, 96 Well (Falcon, 3072) at a rate of 2.5 μL/well. To the respective well was added 25 μL/well of the activated U937 cell suspension ([…]), and the cells were pre-cultured for 120 min. at 37° C. in a 5% CO2 atmosphere incubator. 47.5 μL/well of the substrate liposome suspension with 1.5×10^−6M A23187 (Sigma Chemical Co., C 7522) was added into each well to prepare 75 μL/well of the total reaction mixture, followed by culture for 30 min. under the same conditions with shielding against light. 100 μL/well of 0.1% GEDTA (Dojindo Laboratories Co. Ltd., 348-01311) methanol solution was added into each well and mixed to stop the reaction. […]

[2] = system: TPA-induced ear edema; format: in vivo, ICR-strain male mouse; conditions: topical, 0.3 mg/20 μL/ear × 2; 6 hours after TPA
Method: This test was carried out referring to the method of Carlson, R. P. et al. (Agents and Actions, 17(2): 197-204 (1985).) and the method of Chang, J. (European Journal of Pharmacology, 142: 197-205 (1987).). […] 6 hours later, the thickness of each ear at the particular part was respectively measured three times using a digimatic micrometer to calculate the mean value. Ear edema was determined by subtracting the mean thickness of the left ear as without treatment from that of the right ear as TPA-applied. […] As the positive control, 100 mg/kg of Hydrocortisone (Sigma Chemical Co., H 4001) suspension was applied to the mouse similarly as for the compound of the present invention.

[3] = system: acetic acid-induced writhes; assay: Acetic acid writhing; format: in vivo, ICR-strain male mouse; conditions: i.p., 10 to 20 min after acetic acid
Method: This test was carried out referring to the method of Inoue, K., Motonaga, A. & Nishimura, T (Arzneimittel Forshung/Drug Research, 41 (1): 235-239 (1991)). More specifically, 7.5 mL/kg of 0.9% acetic acid solution was injected intraperitoneally into an ICR-strain male mouse (5 to 7 weeks old), and the induced writhes (characteristic behaviors of convulsive contracting the abdomen, twisting the body and/or extending the legs) were observed. Number of writhes of each mouse was measured during 10 to 20 min. period after acetic acid administration. The compound of the present invention was homogeneously suspended in 2% Tween 80/saline for injection use, and was injected intraperitoneally 30 min. before the induction by the acetic acid injection. Alternatively, the compound of the present invention was homogeneously suspended in 2% Tween 80/distilled water, and was administrated orally two hours before the induction by the acetic acid injection. The analgesic activity of the compounds according to the present invention was evaluated on the basis of the degree of inhibiting the number writhes by the administration of the compounds. As the positive control, indomethacin or aspirin was administrated. The analgesic activity of the compounds according to the present invention measured in this test were exemplified in Table 7.

Inhibition (%) ([1]; 0.01 μM)	Inhibition (%) ([1]; 0.1 μM)	SMILES	inhibition at 0.1 µM [1]	melting point	Ear Edema Inhibition (%) [2]	Number of writhes (Mean ± S.E.) ([3]; 1 mg/kg)	Number of writhes (Mean ± S.E.) ([3]; 0.3 mg/kg)
–	–	C[C@@H]1NC(=N[N+](=O)[O-])O[C@H]1c1ccc(Cl)cc1 (relative stereo) [Compound 1-10, trans-5-(4-chlorophenyl)-4-methyl-2-nitroiminooxazolidine]	79%	123 to 126 °C	–	–	–
86%	–	Cc1ccc(C2SC(=O)N(C(=O)NC3CCCCO3)C2C)cc1 (centres unmarked) [Compound 2-189]	–	–	84%	0.8 ± 0.5	–
–	77%	CCOC(=O)CCC(NC(=O)N1C(=O)SC(c2ccc(Cl)cc2)C1C)C(=O)OCC (centres unmarked) [Compound 2-26]	–	–	86%	–	9.8 ± 1.9
–	84%	CN=C1OC(c2ccc(C)cc2)C(C)N1C(=O)NC1CCCCO1 (centres unmarked) [Compound 1-22]	–	–	56%	12.7 ± 4.1	–
64%	–	COC1CCCC(NC(=O)N2C(=O)OC(c3ccc4c(c3)CCCC4)C2C)O1 (centres unmarked) [Compound 2-135]	–	–	84%	0.8 ± 0.8	–
–	–	C[C@H]1[C@H](c2ccc(Cl)cc2)OC(=N[N+](=O)[O-])N1Cc1ccc(Cl)nc1 (relative stereo) [Compound 1-12, trans-5-(4-chlorophenyl)-4-methyl-3-(2-chloro-5-pyridylmethyl)-2-nitroiminooxazolidine]	52%	–	79%	10.0 ± 1.1	–

— patent publication US6762200B2, “Oxa(thia)zolidine derivative and anti-inflammatory drug” (Nippon Soda Co. Ltd., priority 2000, dated 2004)
